Source: patent US10214492B2, “Heterocyclic inhibitors of MCT4” (Vettore, LLC, priority 2016, dated 2019)
Like-named read-outs stand apart in the source and are kept apart here.

What was measured:
[1] = biological target: MCT4 (Homo sapiens (Human), UniProt O15427); experiment: Assay 3: MCT4-mediated lactate transport in MDA-MB-231 breast cancer cells; format: cell-based
Procedure: (§1) 10 μL of a 30 mM DMSO stock of BCECF-AM ester (Life Technologies) is added and the cells are incubated at 37° C. for 5 min. The cells are pelleted (300 g, 5 min), washed once with 1 mL Tyrode's Solution, pH 7.4, re-pelleted (300 g, 5 min), and resuspended in 1 mL Tyrode's Solution, pH 7.4.
MCT4 activity may be assessed by monitoring the intracellular pH change that accompanies lactate/proton symport, using the pH-sensitive fluorescent dye 2′,7′-bis-(carboxyethyl)-5(6)-carboxyfluorescein (BCECF), in a manner similar to that previously reported for MCT1 and MCT4. The following is an exemplary procedure for assaying MCT4 activity of the compounds of Formula (I).

[2] = biological target: MCT1 (Homo sapiens (Human), UniProt P53985); experiment: Assay 4: MCT1-mediated lactate transport in BT20 breast cancer cells; format: cell-based; conditions: Table 27
Procedure: as §1
Assay 4: MCT1-Mediated Lactate Transport in BT20 Breast Cancer Cells.
Preparation of BCECF loaded cells are as described for Assay 1. Lactate transport assay is as described for Assay 1, except 10 mM L-lactate (rather than 50 mM) is added.

[3] = MDA-MB-231 cells, lactate transport

MCT1, sequence (P53985 whole entry): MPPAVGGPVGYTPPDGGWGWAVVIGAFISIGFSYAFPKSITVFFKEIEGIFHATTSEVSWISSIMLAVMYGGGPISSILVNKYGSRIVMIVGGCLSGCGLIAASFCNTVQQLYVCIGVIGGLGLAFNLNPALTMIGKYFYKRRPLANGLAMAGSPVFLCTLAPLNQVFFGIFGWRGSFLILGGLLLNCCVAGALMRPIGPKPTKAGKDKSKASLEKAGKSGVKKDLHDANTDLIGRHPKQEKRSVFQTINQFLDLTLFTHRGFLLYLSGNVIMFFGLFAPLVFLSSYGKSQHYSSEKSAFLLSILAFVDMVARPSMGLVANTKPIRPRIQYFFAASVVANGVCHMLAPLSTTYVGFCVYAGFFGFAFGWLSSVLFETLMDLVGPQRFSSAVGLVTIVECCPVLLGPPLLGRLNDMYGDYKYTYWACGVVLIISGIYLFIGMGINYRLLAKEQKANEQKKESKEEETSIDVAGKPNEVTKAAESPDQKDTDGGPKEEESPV
MCT1, sequence (P35613 140-385 partner): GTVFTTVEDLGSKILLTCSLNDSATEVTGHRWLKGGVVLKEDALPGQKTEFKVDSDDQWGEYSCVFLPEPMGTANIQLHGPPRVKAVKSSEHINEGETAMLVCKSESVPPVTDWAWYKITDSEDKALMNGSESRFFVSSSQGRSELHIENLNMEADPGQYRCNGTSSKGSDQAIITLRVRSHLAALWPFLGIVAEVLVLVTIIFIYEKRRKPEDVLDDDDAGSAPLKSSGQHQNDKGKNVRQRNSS
MCT4, sequence (O15427 whole entry, looked up): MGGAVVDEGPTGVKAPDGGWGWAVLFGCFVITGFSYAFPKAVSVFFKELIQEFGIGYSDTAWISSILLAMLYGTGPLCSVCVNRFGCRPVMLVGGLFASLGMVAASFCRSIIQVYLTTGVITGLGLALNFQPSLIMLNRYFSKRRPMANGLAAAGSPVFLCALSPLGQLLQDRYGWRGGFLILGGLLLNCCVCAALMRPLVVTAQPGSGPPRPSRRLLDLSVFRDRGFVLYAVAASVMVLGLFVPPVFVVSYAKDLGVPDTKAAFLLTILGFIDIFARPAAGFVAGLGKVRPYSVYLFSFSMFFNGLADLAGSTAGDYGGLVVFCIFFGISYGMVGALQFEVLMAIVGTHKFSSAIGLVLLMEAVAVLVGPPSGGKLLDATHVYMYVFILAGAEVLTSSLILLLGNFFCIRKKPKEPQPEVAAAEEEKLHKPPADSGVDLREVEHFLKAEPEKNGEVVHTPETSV
MCT4, sequence (P35613 whole entry partner, looked up): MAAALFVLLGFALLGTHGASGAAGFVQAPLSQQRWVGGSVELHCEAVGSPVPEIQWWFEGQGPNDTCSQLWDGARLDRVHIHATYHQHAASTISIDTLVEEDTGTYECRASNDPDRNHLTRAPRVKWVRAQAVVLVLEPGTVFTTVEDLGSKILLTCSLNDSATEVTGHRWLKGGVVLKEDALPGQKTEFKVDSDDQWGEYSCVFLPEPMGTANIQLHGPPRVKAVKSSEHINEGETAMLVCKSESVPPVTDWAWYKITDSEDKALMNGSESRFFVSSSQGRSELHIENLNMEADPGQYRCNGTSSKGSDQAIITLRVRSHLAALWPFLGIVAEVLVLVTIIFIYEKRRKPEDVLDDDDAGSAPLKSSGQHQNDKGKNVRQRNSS

CC(C)(OCc1cc(-c2cccc(OC3COC3)c2)n(-c2ccccc2F)n1)C(=O)O [Example 160, 2-([1-(2-Fluorophenyl)-5-[3-(oxetan-3-yl-oxy)phenyl]-1H-pyrazol-3-yl]methoxy)-2-methylpropanoic acid]
IC50 [1, 3]: 270 nM | IC50 [2]: > 100000 nM

CC(C)COc1cccc(-c2cc(COC(C)(C)C(=O)O)nn2Cc2ccc(N(C)C)cc2)c1 [Example 107, 2-[(1-[[4-(Dimethylamino)phenyl]methyl]-5-[3-(2-methylpropoxy)phenyl]-1H-pyrazol-3-yl)methoxy)-2-methylpropanoic acid]
IC50 [1, 3]: 170 nM | IC50 [2]: 9900 nM

Cn1cc(-c2cc(COC(C)(C)C(=O)O)nn2Cc2ccccc2Cl)cn1 [Example 205, 2-([1-[(2-Chlorophenyl)methyl]-5-(1-methyl-1H-pyrazol-4-yl)-1H-pyrazol-3-yl]-methoxy)-2-methylpropanoic acid]
IC50 [1, 3]: 890 nM | IC50 [2]: > 100000 nM

COc1cccc(-c2cc(COC(C)(C)C(=O)O)nn2Cc2ncccc2Cl)c1 [Example 139, 2-([1-[(3-Chloropyridin-2-yl)methyl]-5-(3-methoxyphenyl)-1H-pyrazol-3-yl)methoxy)-2-methylpropanoic acid]
IC50 [1, 3]: 9700 nM | IC50 [2]: > 100000 nM

CC(C)COc1cccc(-c2cc(COC(C)(C)C(=O)O)nn2Cc2cccc(N(C)C)c2)c1 [Example 108, 2-[(1-[[3-(Dimethylamino)phenyl]-methyl]-5-[3-(2-methylpropoxy)phenyl]-1H-pyrazol-3-yl)methoxy)-2-methylpropanoic acid]
IC50 [1, 3]: 36 nM | IC50 [2]: 5200 nM

COc1cccc(-c2cc(/C=C/C(C)(C)C(=O)O)nn2Cc2ccccc2Cl)c1 [Example 143, (3E)-4-[1-[(2-Chlorophenyl)methyl]-5-(3-methoxyphenyl)-1H-pyrazol-3-yl]-2,2-dimethylbut-3-enoic Acid]
IC50 [1, 3]: 195 nM | IC50 [2]: 3300 nM

COc1cc(OC)cc(-c2cc(COC(C)(C)C(=O)O)nn2Cc2ccccn2)c1 [Example 254, 2-([5-(3,5-Dimethoxyphenyl)-1-([pyridin-2-yl]methyl)-1H-pyrazol-3-yl]methoxy)-2-methylpropanoic acid]
IC50 [1, 3]: 285 nM | IC50 [2]: > 100000 nM

CC(C)(OCc1cc(-c2cccc(OC3CC3)c2)n(-c2ccccc2N2CC[C@H](O)C2)n1)C(=O)O [Example 233, 2-([5-(3-Cyclopropoxyphenyl)-1-[2-[(3S)-3-hydroxypyrrolidin-1-yl]phenyl]-1H-pyrazol-3-yl]methoxy)-2-methylpropanoic acid]
IC50 [1, 3]: 700 nM | IC50 [2]: > 100000 nM

CCOc1cc(OCC)cc(-c2cc(COC(C)(C)C(=O)O)nn2Cc2ccccc2Cl)c1 [Example 213, 2-([1-[(2-Chlorophenyl)methyl]-5-(3,5-diethoxyphenyl)-1H-pyrazol-3-yl]methoxy)-2-methylpropanoic acid]
IC50 [1, 3]: 12 nM | IC50 [2]: 12000 nM

CC(C)COc1cccc(-c2cc(COC(C)(C)C(=O)O)nn2-c2ccccc2Cl)c1 [Example 101, 2-([1-(2-Chlorophenyl)-5-[3-(2-methyl-propoxy)phenyl]-1H-pyrazol-3-yl)methoxy)-2-methylpropanoic acid]
IC50 [1, 3]: 3.4 nM | IC50 [2]: 12000 nM

CC(C)(OCc1cc(-c2cccc(OC3COC3)c2)n(-c2ccccc2Cl)n1)C(=O)O [Example 176, 2-([1-(2-Chlorophenyl)-5-[3-(oxetan-3-yl-oxy)phenyl]-1Hpyrazol-3-yl]methoxy)-2-methylpropanoic acid]
IC50 [1, 3]: 180 nM | IC50 [2]: > 100000 nM

CC(C)(OCc1cc(-c2cccc(OC3CC3)c2)n(-c2ccccc2C#N)n1)C(=O)O [Example 239, 2-([1-(2-Cyanophenyl)-5-(3-cyclopropoxy-phenyl)-1H-pyrazol-3-yl)methoxy)-2-methylpropanoic acid]
IC50 [1]: 150 nM | IC50 [2]: > 100000 nM

CCOc1ccccc1-n1nc(COC(C)(C)C(=O)O)cc1-c1cc(OC)cc(OC)c1 [Example 164, 2-([5-(3,5-Dimethoxyphenyl)-1-(2-ethoxy-phenyl)-1H-pyrazol-3-yl]methoxy)-2-methylpropanoic acid]
IC50 [1, 3]: 43 nM | IC50 [2]: > 100000 nM

CC(C)COc1ccc(-c2cc(COC(C)(C)C(=O)O)nn2Cc2ccccc2Cl)s1 [Example 128, 2-([1-[(2-Chlorophenyl)methyl]-5-[5-(2-methylpropoxy)thien-2-yl]-1H-pyrazol-3-yl]methoxy)-2-methylpropanoic acid]
IC50 [1, 3]: 1.2 nM | IC50 [2]: > 11000 nM

CC(C)(OCc1cc(-c2cccc(OC3CC3)c2)n(-c2ccccc2N2CCOCC2)n1)C(=O)O [Example 234, 2-([5-(3-Cyclopropoxyphenyl)-1-[2-(morpholin-4-yl)phenyl]-1H-pyrazol-3-yl]-methoxy)-2-methylpropanoic acid]
IC50 [1, 3]: 960 nM | IC50 [2]: 70000 nM

2-((1-[(2-Chlorophenyl)methyl]-5-(4-cyclopropoxythien-2-yl)-1H-pyrazol-3-yl(methoxy)-2-methylpropanoic acid [Example 130]
IC50 [1, 3]: 98 nM | IC50 [2]: 55 nM

COc1cccc(OC)c1Cn1nc(COC(C)(C)C(=O)O)cc1-c1cccc(OCC(C)C)c1 [Example 135, 2-([1-[(2,6-Dimethoxyphenyl)methyl]-5-[3-(2-methylpropoxy)phenyl] 1H-pyrazol-3-yl]methoxy)-2-methylpropanoic acid]
IC50 [1, 3]: 53 nM | IC50 [2]: 220 nM

CC(C)COc1cccc(-c2cc(COC(C)(C)C(=O)O)nn2-c2ccccc2F)c1 [Example 106, 2-([1-(2-fluorophenyl)-5-[3-(2-methyl-propoxy)phenyl]-1H-pyrazol-3-yl)methoxy)-2-methylpropanoic acid]
IC50 [1, 3]: 12 nM | IC50 [2]: 21000 nM

COc1cccc(-c2cc(COC(C)(C)C(=O)O)nn2Cc2ccccc2OC2CC2)c1 [Example 142, 2-([1-[(2-Cyclopropoxyphenyl)methyl]-5-(3-methoxyphenyl)-1H-pyrazol-3-yl]methoxy)-2-methylpropanoic acid]
IC50 [1, 3]: 6.3 nM | IC50 [2]: 26000 nM

CCOc1ccccc1Cn1nc(COC(C)(C)C(=O)O)cc1-c1cccc(OC2CCC2)c1 [Example 210, 2-([5-(3-cyclobutoxyphenyl)-1-[(2-ethoxy-phenyl)methyl]-1H-pyrazol-3-yl]methoxy)-2-methylpropanoic acid]
IC50 [1, 3]: 2.4 nM | IC50 [2]: 7300 nM

CC(C)(OCc1cc(-c2ccc(OC3CC3)s2)n(Cc2ccccc2Cl)n1)C(=O)O [Example 131, 2-([1-[(2-Chlorophenyl)methyl]-5-(5-cyclopropoxythien-2-yl)-1H-pyrazol-3-yl]methoxy)-2-methylpropanoic acid]
IC50 [1, 3]: 225 nM | IC50 [2]: 650 nM

Cn1cnc2cccc(-n3nc(COC(C)(C)C(=O)O)cc3-c3cccc(OC4CC4)c3)c21 [Example 194, 2-([5-(3-Cyclopropoxyphenyl)-1-(1-methyl-1H-1,3-benzodiazol-7-yl)-1H-pyrazol-3-yl]-methoxy)-2-methylpropanoic acid]
IC50 [1, 3]: 3500 nM | IC50 [2]: > 100000 nM

CC[C@@H](OCc1cc(-c2cccc(OC)c2)n(Cc2ccccc2Cl)n1)C(=O)O [Example 123]
IC50 [1, 3]: 1500 nM | IC50 [2]: 11000 nM

COc1cccc(-c2cc(COC(C)(C)C(=O)O)nn2CC(C)C)c1 [Example 137, 2-([5-(3-Methoxyphenyl)-1-(2-methylpropyl)-1H-pyrazol-3-yl]methoxy)-2-methylpropanoic acid]
IC50 [1, 3]: 1400 nM | IC50 [2]: > 100000 nM

CC(C)(OCc1cc(-c2cccc(OC3CC3)c2)n(-c2cccc3[nH]ncc23)n1)C(=O)O [Example 153, 2-([5-(3-Cyclopropoxyphenyl)-1-(1H-indazol-4-yl)-1H-pyrazol-3-yl]methoxy)-2-methylpropanoic Acid]
IC50 [1, 3]: 830 nM | IC50 [2]: 44000 nM

CCn1ncc2cccc(-n3nc(COC(C)(C)C(=O)O)cc3-c3cccc(OC4CC4)c3)c21 [Example 193, 2-([5-(3-Cyclopropoxyphenyl)-1-(1-ethyl-1H-indazol-7-yl)-1H-pyrazol-3-yl]-methoxy)-2-methylpropanoic acid]
IC50 [1, 3]: 18 nM | IC50 [2]: 38000 nM

Cn1ncc2cccc(Cn3nc(COC(C)(C)C(=O)O)cc3-c3cccc(OCC(C)(C)C)c3)c21 [Example 256, 2-([5-[3-(2,2-Dimethylpropoxy)phenyl]-1-[(1-methyl-1H-indazol-7-yl)methyl]-1H-pyrazol-3-yl]methoxy)-2-methylpropanoic acid]
IC50 [1, 3]: 2.6 nM | IC50 [2]: 17000 nM

CC(C)(OCc1cc(-c2cccc(OC3CC3)c2)n(-c2ccc(Cl)cc2Cl)n1)C(=O)O [Example 184, 2-([5-(3-Cyclopropoxyphenyl)-1-(2,4-dichlorophenyl)-1H-pyrazol-3-yl]methoxy)-2-methylpropanoic acid]
IC50 [1, 3]: 22 nM | IC50 [2]: > 33000 nM

COc1ccccc1-n1nc(COC(C)(C)C(=O)O)cc1-c1cccc(OCC(C)C)c1 [Example 102, 2-([1-(2-Methoxyphenyl)-5-[3-(2-methylpropoxy)phenyl]-1H-pyrazol-3-yl]methoxy)-2-methylpropanoic acid]
IC50 [1, 3]: 15 nM | IC50 [2]: 42000 nM

CC(C)(OCc1cc(-c2cccc(OC3CC3)c2)n(-c2cccc3cn[nH]c23)n1)C(=O)O [Example 152, 2-([5-(3-Cyclopropoxyphenyl)-1-(1H-indazol-7-yl)-1H-pyrazol-3-yl]methoxy)-2-methylpropanoic Acid]
IC50 [1, 3]: 80 nM | IC50 [2]: > 100000 nM

COc1cc(OC)cc(-c2cc(COC(C)(C)C(=O)O)nn2CCc2ccccc2)c1 [Example 212, 2-([5-(3,5-Dimethoxyphenyl)-1-(2-phenyl-ethyl)-1H-pyrazol-3-yl]methoxy)-2-methylpropanoic acid]
IC50 [1, 3]: 195 nM | IC50 [2]: > 100000 nM
